Test results as given in ChEMBL document CHEMBL3351469, “Structure-activity relationships (SAR) and structure-kinetic relationships (SKR) of bicyclic heteroaromatic acetic acids as potent CRTh2 antagonists III: the role of a hydrogen-bond acceptor in long receptor residence times” (Bioorg Med Chem Lett, 2014).

Tests used:
[1] = molecular target: T1, Prostaglandin D2 receptor 2 (Homo sapiens) (UniProt Q9Y5Y4); details: CHO.K1
T1 sequence (whole entry): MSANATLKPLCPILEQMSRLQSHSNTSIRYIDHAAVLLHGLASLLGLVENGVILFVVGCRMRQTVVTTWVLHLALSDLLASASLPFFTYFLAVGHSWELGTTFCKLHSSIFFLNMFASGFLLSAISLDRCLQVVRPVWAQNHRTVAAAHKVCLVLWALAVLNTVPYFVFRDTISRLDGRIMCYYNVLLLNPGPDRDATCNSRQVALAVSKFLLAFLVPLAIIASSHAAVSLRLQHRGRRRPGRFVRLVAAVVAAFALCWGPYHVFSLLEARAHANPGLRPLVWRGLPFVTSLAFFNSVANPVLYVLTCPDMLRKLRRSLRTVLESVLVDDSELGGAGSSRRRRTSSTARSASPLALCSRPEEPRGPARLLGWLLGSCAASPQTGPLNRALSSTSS
Description: Antagonist activity at CRTh2 (unknown origin) stably expressed in PGD2-stimulated CHO.K1 cells assessed as dissociation half-life at 10 times IC50 after 1 hr preincubation by radio-labelled [35S]-GTPgammaS binding assay

[2] = molecular target: T2, Prostaglandin D2 receptor 2 (Homo sapiens, UniProt Q9Y5Y4); assay: Antagonist activity at CRTh2 (unknown origin) stably expressed in PGD2-stimulated CHO.K1 cells preincubated for 1 hr by radio-labelled [35S]-GTPgammaS binding assay; type: functional, cell-based
T2 sequence (Q9Y5Y4 whole entry): T1 sequence (whole entry)

[3] = molecular target: T1, Prostaglandin D2 receptor 2 (Homo sapiens); assay: Antagonist activity at CRTh2 (unknown origin) stably expressed in PGD2-stimulated CHO.K1 cells assessed as dissociation half-life at 10 times IC50 after 1 hr preincubation measured at 28 hrs after washout by radio-labelled [35S]-GTPgammaS binding assay; type: functional, cell-based

Row | T1/2 [1] [h] | IC50 ([2]; read-out: IC50) [nM] | T1/2 [3] [h] | IC50 ([2]; cho.k1) | SMILES
1 | 16 | 9 | – | – | Cc1nnc(C2CC2)n1Cc1cc(C(F)(F)F)ccc1-n1cc(CC(=O)O)c2ccc(F)cc21
2 | – | 2600 | – | – | O=C(O)Cn1cc(-c2ccc(C(F)(F)F)cc2Cc2ocnc2C2CC2)c2cc(F)ccc21
3 | 1.2 | 30 | – | – | Cc1ccc(-n2cc(CC(=O)O)c3ccc(C)nc32)c(Cn2ccnc2-c2ccccc2)c1
4 | 18 | 6 | – | – | Cc1noc(C)c1-c1cccc(-c2c(C)n(CC(=O)O)c3ccc(F)cc23)c1
5 | – | 170 | – | – | Cc1ccc2c(CC(=O)O)cn(-c3ccc(Cl)cc3Cc3cncnc3C(C)C)c2n1
6 | 1.7 | 4 | – | – | Cc1c(-c2cccc3c2CCN(S(C)(=O)=O)C3)c2cc(F)ccc2n1CC(=O)O
7 | 10 | 20 | – | – | Cc1noc(C)c1Cc1cc(C(F)(F)F)ccc1-c1cn(CC(=O)O)c2ccc(F)cc12
8 | 0.6 | 51 | – | – | CCCc1nc2ccccc2n1Cc1ccccc1-n1cc(CC(=O)O)c2ccc(C)nc21
9 | 9 | 16 | – | – | Cc1ccc(-n2cc(CC(=O)O)c3ccc(C)nc32)c(Cn2c(C)nnc2C)c1
10 | 10 | 4 | – | – | Cc1ccc(-n2cc(CC(=O)O)c3ccc(C)nc32)c(Cc2c(C)cnn2CC2CC2)c1
11 | – | 3 | 45 | – | Cc1ccc2c(CC(=O)O)cn(-c3ccc(Cl)cc3Cc3c(C)noc3Cc3ccccc3)c2n1
12 | – | – | – | Not Active | COc1ccc(CC(=O)O)cc1-c1ccc(C(F)(F)F)cc1Cn1ccccc1=O
13 | 6 | 10 | – | – | CCN(Cc1cc(C(F)(F)F)ccc1-n1cc(CC(=O)O)c2ccc(C)nc21)C(C)=O
14 | – | 1400 | – | – | Cc1ccc2c(CC(=O)O)cn(-c3ccc(Cl)cc3Cc3cncnc3)c2n1
15 | 5 | 5 | – | – | Cc1ccc2c(n1)c(-c1ccc(C(F)(F)F)cc1Cc1c(C)noc1C)cn2CC(=O)O
16 | 3 | 2 | – | – | Cc1ccc2c(CC(=O)O)cn(-c3ccc(F)cc3Cc3c(C)noc3C)c2n1
17 | 13 | 1 | – | – | Cc1ccc2c(CC(=O)O)cn(-c3ccc(C(F)(F)F)cc3Cc3c(C)noc3C3CC3)c2n1
18 | 20 | 56 | – | – | Cc1ccc2c(CC(=O)O)cn(-c3ccc(Cl)cc3Cn3c(C)nnc3C3CC3)c2n1
19 | 2 | 14 | – | – | CCN(Cc1cc(C(F)(F)F)ccc1-c1cc(CC(=O)O)ccc1OC)C(=O)C1CC1
20 | 1.5 | 27 | – | – | COc1ccc(CC(=O)O)cc1-c1ccc(C(F)(F)F)cc1Cn1c(C)nnc1C1CC1
21 | 1.2 | 10 | – | – | Cc1ccc2c(CC(=O)O)cn(-c3ccc(F)cc3Cc3c(C)cnn3C)c2n1
22 | 23 | 3 | – | – | Cc1ccc2c(CC(=O)O)cn(-c3ccc(C(F)(F)F)cc3Cc3c(C4CC4)noc3C3CC3)c2n1
23 | – | 1000 | – | – | Cc1ccc(-n2cc(CC(=O)O)c3ccc(C)nc32)c(Cc2ccnn2Cc2ccccc2)c1

Row | T1/2 [1] [h] | IC50 ([2]; read-out: IC50) [nM] | T1/2 [3] [h] | IC50 ([2]; cho.k1) | SMILES
24 | 2.5 | 64 | – | – | Cc1cnn(C)c1Cc1cc(C(F)(F)F)ccc1-c1cn(CC(=O)O)c2ccc(F)cc12
25 | 8 | 37 | – | – | Cc1noc(C2CC2)c1Cc1cc(C(F)(F)F)ccc1-c1cn(CC(=O)O)c2ccc(F)cc12
26 | 14 | 3 | – | – | Cc1ccc2c(CC(=O)O)cc(-c3ccc(C(F)(F)F)cc3Cc3c(C)noc3C3CC3)n2n1
27 | 6 | 2 | – | – | Cc1ccc2c(CC(=O)O)cn(-c3ccc(F)cc3Cc3c(C)noc3C3CC3)c2n1
28 | 26 | 11 | – | – | Cc1ccc2c(CC(=O)O)cn(-c3ccc(Cl)cc3Cn3c(C)nnc3Cc3ccccc3)c2n1
29 | 20 | 6 | – | – | Cc1nnc(C2CC2)n1Cc1cc(C(F)(F)F)ccc1-c1cn(CC(=O)O)c2ccc(F)cc12
30 | – | 150 | – | – | Cc1ccc(-n2cc(CC(=O)O)c3ccc(C)nc32)c(Cn2nncc2C)c1
31 | – | 7 | 42 | – | Cc1noc(C2CC2)c1Cc1cc(Cl)ccc1-n1cc(CC(=O)O)c2ccc(Cc3ccccc3)nc21
32 | 22 | 6 | – | – | Cc1ccc2c(CC(=O)O)cn(-c3ccc(Cl)cc3Cc3c(C4CC4)noc3C3CC3)c2n1
33 | – | – | – | Not Active | Cc1ccc2c(CC(=O)O)cn(-c3ccc(C(F)(F)F)cc3CSC(C)(C)C)c2n1
34 | – | 250 | – | – | Cc1ccc(-n2cc(CC(=O)O)c3ccc(C)nc32)c(Cn2ccnc2C)c1
35 | 26 | 9 | – | – | Cc1ccc2c(CC(=O)O)cn(-c3ccc(Cl)cc3Cn3c(C)nnc3CCc3ccccc3)c2n1
36 | – | 580 | – | – | Cc1ccc2c(CC(=O)O)cn(-c3ccccc3Cn3ccnc3)c2n1
37 | – | – | – | Not Active | Cc1cn(Cc2ccccc2-n2cc(CC(=O)O)c3ccc(C)nc32)c(C)n1
38 | – | – | – | Not Active | Cc1ccc2c(CC(=O)O)cn(-c3ccc(Cl)cc3Cc3cc(C)nn3C)c2n1
39 | 25 | 23 | – | – | Cc1noc(C2CC2)c1Cc1cc(C(F)(F)F)ccc1-c1cn(CC(=O)O)c2ccc(C(F)(F)F)nc12
40 | – | – | – | Not Active | Cc1ccc2c(CC(=O)O)cn(-c3ccccc3Cn3nc(C)nc3C)c2n1
41 | 27 | 37 | – | – | Cc1noc(C2CC2)c1Cc1cc(F)ccc1-c1cn(CC(=O)O)c2ccc(C(F)(F)F)cc12
42 | 20 | 7 | – | – | Cc1ccc(-n2cc(CC(=O)O)c3ccc(Cc4ccccc4)nc32)c(Cn2c(C)nnc2C)c1
43 | 12 | 5 | – | – | Cc1ccn2c(CC(=O)O)cc(-c3ccc(C(F)(F)F)cc3Cc3c(C)noc3C3CC3)c2n1
44 | 11 | 8 | – | – | CCN(Cc1cc(C(=O)NCCc2ccccc2)ccc1-n1cc(CC(=O)O)c2ccc(C)nc21)C(=O)C1CC1
45 | – | 1800 | – | – | Cc1ccc2c(CC(=O)O)cn(-c3ccccc3Cn3ccnn3)c2n1
